# Assay results taken from patent publication US9688673B2, “Deoxycytidine kinase binding compounds” (THE REGENTS OF THE UNIVERSITY OF CALIFORNIA, priority 2011, dated 2017).
# “Also recorded” adds a separate entry of the source.
# Tests used:
# [1] = tested on: A549 human lung adenocarcinoma cells; assay: Cell proliferation and viability, A549 cells, 72 hours; settings: 1 μM F2.2.1 + 1 mM dT
# Protocol: At the end of the incubation period cells were analyzed by flow cytometry to determine the effects of the treatment on cell proliferation and viability.
# [2] = tested on: NALM-6 human acute B lymphoblastic leukemia; assay: Cell proliferation and viability, NALM-6 cells, 72 hours; settings: 1 μM F2.2.1 + 1.6 mM dT, media with 1.25 μM deoxycytidine
# Protocol: At the end of the incubation period cells were analyzed by flow cytometry to determine the effects of the treatment on leukemic cell proliferation and viability.
# dCK activity = molecular target: T1, dCK activity (Mus musculus, UniProt P43346); assay: Inhibition of dCK activity in vivo by 18F-FAC PET/CT imaging; settings: mice
# T1 construct: dCK expressing tissues such as Thymus (Thy), Bone marrow (BM), spleen (S) and the GI tract; from tissue; host or cells: living mice: thymus, bone marrow, spleen, GI tract
# Protocol: Mice were treated with the dCK inhibitor and scanned at indicated time points by ^18F-FAC PET/CT to non-invasively determine dCK activity in vivo, throughout the body. ^18F-FAC PET/CT scans were performed as described in Shu, C. J. et al., “Novel PET probes specific for deoxycytidine kinase” J. Nucl.
# CEM shC cells = assay: Growth of CEM cells treated with dT and/or dC over 7 days; type: cell-based, human; settings: period of 7 days
# Source text: Compound F2.2.1 was not used in “Mock” experiments in either panel A or B.
# [3] = tested on: NALM-6 human acute B lymphoblastic leukemia; assay: S-phase arrest by flow cytometry, NALM-6 cells; type: cell-based
# Protocol: (§1) At the end of the incubation period cells were analyzed by flow cytometry to determine the effects of the treatment on cell cycle progression.
# Primary murine T cells = assay: In vitro T lymphocyte proliferation (CFSE, flow cytometry); type: cell-based, C57/BL6 mice; settings: 1 μM final concentration, 72 hours after activation
# Protocol: Primary murine T cells were obtained from C57/BL6 mice. […] Prior to antibody-mediated activation, T cells were labeled with the fluorescent dye CFSE to allow measurements of cell division. […] The dCK inhibitors were used at 1 μM final concentration.
# [4] = tested on: CCRF-CEM (CEM) human acute T lymphoblastic leukemia; assay: S-phase arrest by flow cytometry, CEM cells; type: cell-based
# Protocol: as §1
# [5] = tested on: CCRF-CEM (CEM) human acute T lymphoblastic leukemia; assay: Leukemic cell proliferation and viability, CEM cells, 72 hours; type: cell-based
# Protocol: Addition of 2.5 μM dC rescued the cell cycle from the thymidine block by the salvage pathway.
# [6] = tested on: IGROV1 human ovarian adenocarcinoma; assay: S-phase arrest by flow cytometry, IGROV1 cells; type: cell-based
# Protocol: as §1
# [7] = molecular target: deoxycytidine kinase (dCK) (Homo sapiens, UniProt P27707); assay: Inhibition of [3H]-deoxycytidine (dCyd) uptake by CEM cells; settings: for Inhibition of [3H]-dCyd uptake by CEM cells, in words: ranking within panel / compared with DI-0105, DI-0110 and DI-0120
# Protocol: Potency of dCK inhibitory activities of the compounds can be tested by measuring cellular substrate uptake and phosphorylation, for examples, uptake of [^3H]-deoxycytidine (dCyd or dC) into CEM (human) or L1210 (mouse) cells.
# 50,000 CEM cells/well were added to Millipore MultiScreen GV 96 well plates. Cells were resuspended at 1×10^6 cells/mL and incubated for 30 minutes at 37° C. The drug dilution plate was prepared by starting with an initial drug concentration of 10 mM in DMSO, and proceeding to make 1:5 dilutions for drug. 10 mL of drug was added to 40 mL DMSO and mixed by pipetting 10 times before removing 10 uL for next well (1:5 serial dilutions). The media and tritiated deoxycytidine was mixed together. 245 mL of media/probe mixture was added to each well of an Optiplate. 5 mL from drug plate was added to each well in the Optiplate to obtain drug/media/probe mixture and mixed. 50 mL of drug/media/probe mixture from Optiplate was added to the cell plate and incubate at 37° C. for 1 hour. The cell plate was placed on vacuum to aspirate, and then washed with ice cold PBS: 200 mL 1×PBS 4 times. The backing of the plate was peeled off, and the plate was placed in dryer for at least 30 minutes or until dry at 37° C. 100 mL Scintillation fluid per well was added, and the plate was sealed with clear plate seal. The plate was read on the Microbeta instrument.
# thymidine (dT) uptake = assay: Inhibition of thymidine (dT) uptake (selectivity vs. dC uptake); settings: read-out: dCKi IC50 dT
# Source text: Potency of dCK inhibitory activities of the compounds can be tested by measuring cellular substrate uptake and phosphorylation, for examples, uptake of [^3H]-deoxycytidine (dCyd or dC) into CEM (human) or L1210 (mouse) cells. The compounds may be further screened for low off-target toxicity (e.g., inhibition of growth and proliferation of dCK negative cells) and selectivity over other nucleoside kinases (e.g., thymidine kinase).
# T1 sequence (P43346 whole entry): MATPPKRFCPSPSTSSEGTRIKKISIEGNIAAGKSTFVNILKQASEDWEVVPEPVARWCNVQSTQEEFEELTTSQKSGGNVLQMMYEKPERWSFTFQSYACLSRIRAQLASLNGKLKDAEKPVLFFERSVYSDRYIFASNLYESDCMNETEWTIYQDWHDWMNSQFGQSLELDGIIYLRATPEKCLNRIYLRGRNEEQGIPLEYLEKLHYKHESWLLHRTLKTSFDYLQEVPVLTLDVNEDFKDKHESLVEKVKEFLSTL
# deoxycytidine kinase (dCK), sequence (P27707 whole entry): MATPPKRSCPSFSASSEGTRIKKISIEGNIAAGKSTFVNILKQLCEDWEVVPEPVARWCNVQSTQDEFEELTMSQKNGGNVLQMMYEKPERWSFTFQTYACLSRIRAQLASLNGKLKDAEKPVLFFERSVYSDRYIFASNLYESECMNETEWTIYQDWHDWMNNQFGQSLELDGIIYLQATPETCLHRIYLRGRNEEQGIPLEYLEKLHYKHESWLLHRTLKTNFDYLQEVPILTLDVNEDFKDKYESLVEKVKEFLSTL
structure (smiles),measurement,setting,value
COc1ccc(-c2nc(CSc3nc(N)cc(N)n3)c(C)s2)cc1OCCF [Compound F2.2.1],"Proliferation of A549 cells, combination with thymidine",[1],significantly reduce the proliferation
same,"Proliferation of NALM-6 cells, combination with thymidine",[2],significantly reduce the proliferation
same,Duration of inhibition of dCK activity in vivo in multiple tissues,dCK activity; 200 mg/kg oral gavage,at least 2 hours
same,18F-FAC signals in dCK expressing tissues,"dCK activity; Thymus, Bone marrow, spleen and GI tract",Significant decrease
same,18F-FAC signals in the bladder,"dCK activity; bladder, probe clearance organ",not affected
same,Growth of thymidine (dT) treated CEM cells,CEM shC cells,completely suppressed the growth
same,dT + dCKi % S-phase arrest (of cells in cycle),"[3]; NALM-6, 1.6 mM dT + 1 mM F2.2.1, 24 hours",79.8%
same,T cell proliferation,Primary murine T cells,significantly blocks T cell proliferation
same,dT + dCKi % S-phase arrest (of cells in cycle),"[4]; 50 mM dT + 1 mM F2.2.1, 24 hours",84.5%
same,"Growth / proliferation of CEM cells, combination with thymidine",[5]; 1 μM F2.2.1 + 50 μM dT,almost completely shut down the growth of CEM cells; also recorded: significantly reduce the proliferation
same,"Effect on cell viability, compound alone",[5]; 1 μM alone,little effect on cell viability
same,dT + dCKi % S-phase arrest (of cells in cycle),"[6]; IGROV1, 1 mM dT + 1 mM F2.2.1, 24 hours",60.3%
same,"Inhibition of [3H]-dCyd uptake by CEM cells, in words",[7],superior activities
same,IC50,thymidine (dT) uptake,4930 nM
CCCc1sc(-c2ccc(OC)c(OCCO)c2)nc1CSc1nc(N)cc(N)n1 [DI-26],T cell proliferation,Primary murine T cells,significantly blocks T cell proliferation
CCCc1sc(-c2ccc(OC)c(OCCO)c2)nc1CSc1nccc(N)n1 [DI-27],"Inhibition of [3H]-dCyd uptake by CEM cells, in words",[7],among the most potent compounds in this panel
CCCc1sc(-c2cccc(OCCO)c2)nc1CSc1nc(N)cc(N)n1 [DI-29],"Inhibition of [3H]-dCyd uptake by CEM cells, in words",[7],among the most potent compounds in this panel
CCCc1sc(-c2ccnc(OCCO)c2)nc1CSc1nc(N)cc(N)n1 [DI-30],EC50,[7],2.5 nM
same,"Inhibition of [3H]-dCyd uptake by CEM cells, in words",[7],among the most potent compounds in this panel; also recorded: superior activities
CCOc1ccc(-c2nc(CSc3nc(N)cc(N)n3)cs2)cc1OC [DI-0105],EC50,[7],133 nM
COc1ccc(-c2nc(CSc3nc(N)cc(N)n3)cs2)cc1 [DI-0110],EC50,[7],478 nM
COc1ccc(Br)cc1-c1nc(CSc2nc(N)cc(N)n2)cs1 [DI-0120],EC50,[7],779 nM
"Cc1cn([C@H]2C[C@H](O)[C@@H](CO)O2)c(=O)[nH]c1=O [dT, thymidine, reference compound]",dT without dCKi % S-phase arrest (of cells in cycle),"[3]; NALM-6, 1.6 mM dT, 24 hours",52%
same,dT without dCKi % S-phase arrest (of cells in cycle),"[4]; 50 mM dT, 24 hours",36%
same,"Cell growth and cell cycle, thymidine alone",[5]; dT at 50 μM,suppressed cell growth but failed to shut down the cell cycle
same,dT without dCKi % S-phase arrest (of cells in cycle),"[6]; IGROV1, 1 mM dT, 24 hours",35.9%
"Nc1ccn([C@H]2C[C@H](O)[C@@H](CO)O2)c(=O)n1 [deoxycytidine (dC), deoxycytidine]","Number of viable cells relative to vehicle control, deoxycytidine",[5]; 2.5 μM dC,decreased the number of viable cells
